Assay [1] has as its target T1, hGluN1/hGluN2A (Homo sapiens, UniProt Q05586+Q12879). As to the kind of experiment: cell-based. On the set-up: gene GRIN1; cDNA vectors for human GluN1-1a and GluN2A co-transfected with GFP in HEK293 cells; diheteromeric receptor; whole-cell voltage-clamp electrophysiology, inhibition of steady-state L-glutamate-induced currents at -60 mV. Particulars: HEK293; -60 mV, 1 mM L-glutamate. Here is the method:
(§1) First, we determined the relative inhibition of all novel compounds on the two major diheteromeric NMDA receptor subtypes in the adult cortex – GluN1/GluN2A and GluN1/GluN2B [1] – using a clinically relevant concentration (3 µM). We kept the measured cells at a membrane potential of -60 mV, and the values of relative inhibition by the compounds were calculated from the L-glutamate-induced responses of human versions of the GluN1/GluN2A (hGluN1/hGluN2A) and GluN1/GluN2B (hGluN1/hGluN2B) receptors obtained under steady-state conditions. […] Specifically, in the case of hGluN1/hGluN2A receptors, we obtained relative inhibition values ranging from ∼5% for compound 3h to ∼93% for compound 6f, while for hGluN1/hGluN2B receptors, we measured values ranging from ∼3% for compound 3i to ∼92% for compound 6g at a fixed dose of 3 µM of the tested compound. […] It can be assumed that the positive and negative effects of a given inhibitor of the NMDA receptor in vivo are caused by their affinity and the kinetics of inhibition, in addition to their availability in the CNS. […] In further experiments, we generated concentration-response curves for 6f (0.03-10 µM) and 3l (0.3-300 µM) on both hGluN1/hGluN2A and hGluN1/hGluN2B receptors at negative (-60 mV) and positive (40 mV) membrane potentials (Fig. 2A-D). […] (A, C) Representative whole-cell voltage-clamp recordings of HEK293 cells expressing hGluN1/hGluN2A or hGluN1/hGluN2B receptors showing the inhibitory effects of compound 6f (0.03 - 300 µM) and compound 3l (0.3 - 300 µM) at membrane potentials of 40 mV (A) and -60 mV (C). Glu = 1 mM L-glutamate. (B, D) Normalized inhibitory concentration-response curves for compound 6f and compound 3l for hGluN1/hGluN2A and hGluN1/hGluN2B receptors at membrane potentials of 40 mV (B) and -60 mV (D). Concentration-response curves were fitted using Equation 1; the resulting IC50 values, Hill coefficients, and the numbers of cells measured for each membrane potential are shown in Table 3.

The target in assay [2] is T2, hGluN1/hGluN2B (Homo sapiens, UniProt Q05586+Q13224). Briefly: whole-cell patch clamp, HEK293. The assay is classed as cell-based. The arrangement: gene GRIN1; cDNA vectors for human GluN1-1a and GluN2B co-transfected with GFP in HEK293 cells; diheteromeric receptor. Particulars: -60 mV; 1 mM L-glutamate, 100 µM glycine; pH 7.3; voltage-dependent block. An excerpt:
whole-cell patch clamp, HEK293 on hGluN1/hGluN2B
A general note: In patch-clamp work, channel activity is measured electrically.

The target in assay [3] is T3, human plasmatic butyrylcholinesterase (hBChE) (Homo sapiens, UniProt P06276).
T3 construct: gene BCHE
As to the kind of experiment: biochemical.

Assay [4] addresses T2, hGluN1/hGluN2B. Briefly: cell-based. On the set-up: gene GRIN1; cDNA vectors for human GluN1-1a and GluN2B co-transfected with GFP in HEK293 cells; diheteromeric receptor; whole-cell voltage-clamp electrophysiology, inhibition of steady-state L-glutamate-induced currents at -60 mV. Particulars: HEK293; -60 mV, 1 mM L-glutamate. Here is the method:
as §1

Assay [5] has as its target T1, hGluN1/hGluN2A. Briefly: whole-cell patch clamp, HEK293. The assay is classed as cell-based. On the set-up: gene GRIN1; cDNA vectors for human GluN1-1a and GluN2A co-transfected with GFP in HEK293 cells; diheteromeric receptor. Particulars: -60 mV; 1 mM L-glutamate, 100 µM glycine; pH 7.3; voltage-dependent block. From the text: whole-cell patch clamp, HEK293 on hGluN1/hGluN2A

For assay [6], the target named is T4, human recombinant AChE (hAChE) (Homo sapiens, UniProt P22303).
T4 construct: recombinant enzyme purchased from Merck
As to the kind of experiment: modified Ellman's method. The format is biochemical.

The target of assay [7] is T1, hGluN1/hGluN2A. On the set-up: gene GRIN1. Particulars: -60 mV; 1 mM L-glutamate, 100 µM glycine; pH 7.3.
For assay [8], the target named is T2, hGluN1/hGluN2B. On the set-up: gene GRIN1. Particulars: -60 mV; 1 mM L-glutamate, 100 µM glycine; pH 7.3.
Assay [9] deals with T3, human plasmatic butyrylcholinesterase (hBChE).

Counter-ions that a name gives are not always drawn. Like-named read-outs stand apart in the source and are kept apart here.

T2 sequence (Q13224 27-1484, other chains not shown): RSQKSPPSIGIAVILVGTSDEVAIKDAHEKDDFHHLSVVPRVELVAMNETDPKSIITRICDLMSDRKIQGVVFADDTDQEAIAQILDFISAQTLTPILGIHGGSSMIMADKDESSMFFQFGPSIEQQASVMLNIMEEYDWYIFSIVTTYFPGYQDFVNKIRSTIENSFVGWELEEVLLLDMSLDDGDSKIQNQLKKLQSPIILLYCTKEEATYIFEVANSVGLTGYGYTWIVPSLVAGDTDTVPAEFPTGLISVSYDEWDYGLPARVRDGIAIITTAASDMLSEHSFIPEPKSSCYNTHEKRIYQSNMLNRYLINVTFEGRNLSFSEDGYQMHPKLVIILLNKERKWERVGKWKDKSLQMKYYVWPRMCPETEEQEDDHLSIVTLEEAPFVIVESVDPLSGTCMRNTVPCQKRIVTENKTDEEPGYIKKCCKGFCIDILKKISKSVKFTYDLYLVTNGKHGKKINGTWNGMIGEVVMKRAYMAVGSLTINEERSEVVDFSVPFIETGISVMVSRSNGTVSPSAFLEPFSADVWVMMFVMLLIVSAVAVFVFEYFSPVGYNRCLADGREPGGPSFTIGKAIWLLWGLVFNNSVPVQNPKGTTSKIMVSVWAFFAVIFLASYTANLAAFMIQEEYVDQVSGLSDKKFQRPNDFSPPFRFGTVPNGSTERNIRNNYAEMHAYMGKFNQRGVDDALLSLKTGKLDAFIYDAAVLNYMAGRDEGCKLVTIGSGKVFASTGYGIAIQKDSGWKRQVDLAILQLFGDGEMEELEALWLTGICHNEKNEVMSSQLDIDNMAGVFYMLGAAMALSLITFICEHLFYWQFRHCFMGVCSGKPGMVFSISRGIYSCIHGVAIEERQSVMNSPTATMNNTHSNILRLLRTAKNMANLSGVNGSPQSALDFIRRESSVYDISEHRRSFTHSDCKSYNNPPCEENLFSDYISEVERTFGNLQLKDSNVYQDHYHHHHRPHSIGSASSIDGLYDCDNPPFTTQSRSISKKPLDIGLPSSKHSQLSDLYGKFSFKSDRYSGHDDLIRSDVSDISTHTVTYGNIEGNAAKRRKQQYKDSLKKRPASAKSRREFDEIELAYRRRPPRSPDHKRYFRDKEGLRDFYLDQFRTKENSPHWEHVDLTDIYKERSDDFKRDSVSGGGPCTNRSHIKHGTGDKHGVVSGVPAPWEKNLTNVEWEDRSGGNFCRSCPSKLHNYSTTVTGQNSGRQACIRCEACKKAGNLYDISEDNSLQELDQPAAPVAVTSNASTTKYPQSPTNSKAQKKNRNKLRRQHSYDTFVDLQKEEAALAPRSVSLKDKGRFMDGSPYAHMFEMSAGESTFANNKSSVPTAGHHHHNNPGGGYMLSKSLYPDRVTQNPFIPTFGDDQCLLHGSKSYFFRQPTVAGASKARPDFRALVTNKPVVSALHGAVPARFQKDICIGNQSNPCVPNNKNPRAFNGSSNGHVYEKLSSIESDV
T3 sequence (P06276 29-602): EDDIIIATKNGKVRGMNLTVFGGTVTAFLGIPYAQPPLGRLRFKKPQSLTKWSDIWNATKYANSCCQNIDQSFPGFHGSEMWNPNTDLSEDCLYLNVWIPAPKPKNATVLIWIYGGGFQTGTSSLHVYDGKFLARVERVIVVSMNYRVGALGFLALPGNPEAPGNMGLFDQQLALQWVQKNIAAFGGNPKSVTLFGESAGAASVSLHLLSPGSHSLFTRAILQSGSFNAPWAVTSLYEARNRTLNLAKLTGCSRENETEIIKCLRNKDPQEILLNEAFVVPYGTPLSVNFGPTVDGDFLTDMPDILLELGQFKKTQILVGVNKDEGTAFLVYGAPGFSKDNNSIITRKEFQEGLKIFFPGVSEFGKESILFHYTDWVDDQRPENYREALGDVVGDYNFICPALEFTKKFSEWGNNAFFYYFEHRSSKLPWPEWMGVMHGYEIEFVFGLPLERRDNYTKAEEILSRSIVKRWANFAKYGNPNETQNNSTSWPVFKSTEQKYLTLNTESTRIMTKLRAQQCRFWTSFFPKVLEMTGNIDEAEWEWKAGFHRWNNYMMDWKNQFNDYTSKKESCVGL
T1 sequence (Q12879 23-1464, other chains not shown): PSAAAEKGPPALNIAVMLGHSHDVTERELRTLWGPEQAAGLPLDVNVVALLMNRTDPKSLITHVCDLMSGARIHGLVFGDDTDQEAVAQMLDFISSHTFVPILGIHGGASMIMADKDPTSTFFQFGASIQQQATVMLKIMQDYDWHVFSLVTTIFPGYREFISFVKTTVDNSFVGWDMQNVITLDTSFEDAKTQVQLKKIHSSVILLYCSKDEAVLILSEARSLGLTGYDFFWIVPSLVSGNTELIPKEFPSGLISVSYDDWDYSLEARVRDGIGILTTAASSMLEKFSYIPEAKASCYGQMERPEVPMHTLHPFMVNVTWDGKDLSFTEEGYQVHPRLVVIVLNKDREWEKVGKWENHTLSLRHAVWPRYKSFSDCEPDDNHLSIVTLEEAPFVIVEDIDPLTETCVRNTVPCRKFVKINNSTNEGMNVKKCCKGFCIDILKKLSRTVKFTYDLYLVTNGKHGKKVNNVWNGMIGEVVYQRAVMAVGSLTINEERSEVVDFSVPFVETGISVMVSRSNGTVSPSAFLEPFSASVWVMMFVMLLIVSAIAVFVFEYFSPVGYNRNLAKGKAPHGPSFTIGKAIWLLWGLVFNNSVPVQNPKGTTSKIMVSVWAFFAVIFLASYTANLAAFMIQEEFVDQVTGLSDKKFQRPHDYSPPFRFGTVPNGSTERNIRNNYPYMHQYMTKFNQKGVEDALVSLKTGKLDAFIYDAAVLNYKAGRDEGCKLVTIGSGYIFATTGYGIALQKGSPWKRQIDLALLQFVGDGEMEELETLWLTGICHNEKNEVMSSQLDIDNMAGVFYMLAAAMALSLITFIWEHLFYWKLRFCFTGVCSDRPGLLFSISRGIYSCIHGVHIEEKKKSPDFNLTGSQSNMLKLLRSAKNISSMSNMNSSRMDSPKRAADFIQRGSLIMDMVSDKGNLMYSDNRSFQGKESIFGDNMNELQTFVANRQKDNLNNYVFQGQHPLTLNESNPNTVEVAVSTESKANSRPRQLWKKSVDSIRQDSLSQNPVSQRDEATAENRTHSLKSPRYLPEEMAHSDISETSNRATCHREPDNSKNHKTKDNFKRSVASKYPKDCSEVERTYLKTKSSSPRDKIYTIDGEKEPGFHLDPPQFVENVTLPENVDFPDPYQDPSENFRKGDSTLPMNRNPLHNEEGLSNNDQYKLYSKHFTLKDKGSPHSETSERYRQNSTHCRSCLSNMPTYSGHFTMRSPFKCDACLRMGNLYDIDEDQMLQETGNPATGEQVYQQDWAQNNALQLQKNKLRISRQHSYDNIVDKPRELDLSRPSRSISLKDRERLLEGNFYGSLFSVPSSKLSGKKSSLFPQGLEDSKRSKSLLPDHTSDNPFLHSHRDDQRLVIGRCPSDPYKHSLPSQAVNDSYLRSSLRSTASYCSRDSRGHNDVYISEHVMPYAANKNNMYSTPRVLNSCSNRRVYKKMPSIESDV
T4 sequence (P22303 32-614): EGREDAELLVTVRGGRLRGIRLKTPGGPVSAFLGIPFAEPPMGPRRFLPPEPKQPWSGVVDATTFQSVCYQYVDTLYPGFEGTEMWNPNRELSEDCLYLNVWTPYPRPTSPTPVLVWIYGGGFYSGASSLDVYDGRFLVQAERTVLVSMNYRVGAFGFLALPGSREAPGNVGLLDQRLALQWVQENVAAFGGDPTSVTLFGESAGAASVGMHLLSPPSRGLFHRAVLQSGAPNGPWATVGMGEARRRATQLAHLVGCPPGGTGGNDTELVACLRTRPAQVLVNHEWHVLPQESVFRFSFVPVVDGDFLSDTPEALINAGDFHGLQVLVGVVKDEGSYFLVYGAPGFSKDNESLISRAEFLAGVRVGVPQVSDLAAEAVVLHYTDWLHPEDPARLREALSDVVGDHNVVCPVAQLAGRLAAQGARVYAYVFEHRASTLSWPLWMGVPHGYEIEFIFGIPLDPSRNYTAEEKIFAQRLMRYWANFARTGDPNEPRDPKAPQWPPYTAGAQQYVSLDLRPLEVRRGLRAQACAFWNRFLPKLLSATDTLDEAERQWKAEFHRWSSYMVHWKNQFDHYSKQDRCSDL

With `OCCNC1c2ccccc2CCc2ccccc21` [3l, 2-((10,11-dihydro-5H-dibenzo[a,d][7]annulen-5-yl)amino)ethanol hydrochloride], the results for the inhibition at 3 µM on hGluN1/hGluN2A [1] and on hGluN1/hGluN2B [4] were 48 ± 5.18% and 49.7 ± 4.47%, respectively. The IC50 is 4.4 ± 0.42 µM at hGluN1/hGluN2B [2], > 100 µM in [3], 4.42 ± 0.9 µM against hGluN1/hGluN2A [5] and > 100 µM in assay [6].

In the case of `CC(C)CNC1c2ccccc2C=Cc2ccccc21` [6f, N-isobutyl-5H-dibenzo[a,d][7]annulen-5-amine hydrochloride], the figures for the inhibition at 3 µM against hGluN1/hGluN2A [1] and against hGluN1/hGluN2B [4] were 93.2 ± 1.11% and 91.77 ± 0.71%, respectively. The IC50 on hGluN1/hGluN2B [2] is 0.16 ± 0.01 µM; in assay [3] it was > 100 µM; against hGluN1/hGluN2A [5], 0.36 ± 0.06 µM; in [6], > 100 µM.

On to `C1=Cc2ccccc2C(NC2CCCCC2)c2ccccc21` [6g, N-cyclohexyl-5H-dibenzo[a,d][7]annulen-5-amine hydrochloride], for which the figures for the “RI (%) at 3 μM” value at hGluN1/hGluN2A [7] and at hGluN1/hGluN2B [8] were 92.12 ± 1.48% and 92.37 ± 1.82%, respectively. In addition, it took 8.5 ± 0.4 µM to reach half-maximal inhibition in [3] (IC50).

In turn, `C1=Cc2ccccc2C(N2CCCCC2)c2ccccc21` [6h, 1-(5H-dibenzo[a,d][7]annulen-5-yl)piperidine hydrochloride] came in with an IC50 in assay [9] of 16.5 ± 0.9 µM. For the same molecule, the inhibition at 3 µM was 29.9 ± 2.73% on hGluN1/hGluN2A [1] and 58.4 ± 4.37% on hGluN1/hGluN2B [4].

Broadly, the inhibition is the share of the control response that was lost under treatment. Low readings indicate little suppression, high ones strong suppression. By IC50 is commonly meant the concentration that inhibits the measured activity by half.

The values above are taken from article doi:10.1101/2024.06.17.599304v1, “Dizocilpine derivatives with neuroprotective effect lacking the psychomimetic side effects” (biorxiv, 2024).
